Source: ChEMBL document CHEMBL1146126 (Bioorg Med Chem Lett, 2006)

Tests used:
[1] = target: T1, Prostaglandin E2 receptor EP4 subtype (Rattus norvegicus, UniProt P43114); assay: Binding affinity to rat EP4 receptor expressed in HEK293 cells; type: cell-based
[2] = target: Prostaglandin E2 receptor EP4 subtype (Rattus norvegicus) (UniProt P43114); assay: Activity at rat EP4 transfected in HEK293 cells by cAMP accumulation compared to PGE2; type: functional, cell-based
[3] = target: Prostaglandin E2 receptor EP2 subtype (Rattus norvegicus, UniProt Q62928); assay: Binding affinity to rat EP2 receptor expressed in HEK293 cells; type: cell-based
Chain of Prostaglandin E2 receptor EP2 subtype (Q62928 whole entry): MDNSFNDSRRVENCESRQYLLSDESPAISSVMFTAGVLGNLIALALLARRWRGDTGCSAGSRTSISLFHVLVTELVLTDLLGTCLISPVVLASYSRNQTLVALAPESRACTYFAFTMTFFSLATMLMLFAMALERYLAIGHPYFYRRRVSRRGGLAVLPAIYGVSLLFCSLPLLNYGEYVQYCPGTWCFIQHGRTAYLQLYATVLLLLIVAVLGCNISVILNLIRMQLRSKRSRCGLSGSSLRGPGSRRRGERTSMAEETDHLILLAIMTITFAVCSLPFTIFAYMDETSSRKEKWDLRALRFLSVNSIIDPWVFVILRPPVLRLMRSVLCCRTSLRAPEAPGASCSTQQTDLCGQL

[4] = target: T1, Prostaglandin E2 receptor EP4 subtype; assay: Activity at rat EP4 transfected in HEK293 cells by cAMP accumulation; type: functional, cell-based
Rattus norvegicus [5] = assay: Increase in cortical area at 30 mg/kg, sc 28 days post dose in ovariectomized osteopenic rat; type: functional; settings: route subcutaneous
[6] = Half life in po dosed Sprague-Dawley rat; type: ADME, organism-based; settings: in vivo
Rattus norvegicus [7] = assay: Volume distribution in sc dosed Sprague-Dawley rat; type: ADME, organism-based; settings: in vivo
Rattus norvegicus [8] = assay: Increase in cortical content at 10 mg/kg, sc 28 days post dose in ovariectomized osteopenic rat; type: functional; settings: route subcutaneous
[9] = Half life in iv dosed Sprague-Dawley rat; type: ADME, organism-based; settings: in vivo
Rattus norvegicus [10] = assay: Increase in cortical area at 10 mg/kg, sc 28 days post dose in ovariectomized osteopenic rat; type: functional; settings: route subcutaneous
[11] = Half life in sc dosed Sprague-Dawley rat; type: ADME, organism-based; settings: in vivo
Rattus norvegicus [12] = assay: Increase in total bone density at 30 mg/kg, sc 28 days post dose in ovariectomized osteopenic rat; type: functional; settings: route subcutaneous
[13] = Oral bioavailability in Sprague-Dawley rat; type: ADME, organism-based; settings: in vivo
Rattus norvegicus [14] = assay: Increase in total bone content at 30 mg/kg, sc 28 days post dose in ovariectomized osteopenic rat; type: functional; settings: route subcutaneous
Rattus norvegicus [15] = assay: Increase in cortical thickness at 10 mg/kg, sc 28 days post dose in ovariectomized osteopenic rat; type: functional; settings: route subcutaneous
Rattus norvegicus [16] = assay: Increase in cortical content at 30 mg/kg, sc 28 days post dose in ovariectomized osteopenic rat; type: functional; settings: route subcutaneous
[17] = Plasma clearance in iv dosed Sprague-Dawley rat
Rattus norvegicus [18] = assay: Increase in total bone content at 10 mg/kg, sc 28 days post dose in ovariectomized osteopenic rat; type: functional; settings: route subcutaneous
Rattus norvegicus [19] = assay: Increase in total bone density at 10 mg/kg, sc 28 days post dose in ovariectomized osteopenic rat; type: functional; settings: route subcutaneous
Rattus norvegicus [20] = assay: Increase in cortical thickness at 30 mg/kg, sc 28 days post dose in ovariectomized osteopenic rat; type: functional; settings: route subcutaneous
[21] = target: T2, Prostaglandin E2 receptor EP3 subtype (Homo sapiens, UniProt P43115); assay: Binding affinity to human EP3 receptor expressed in HEK293 cells; type: cell-based
T2 sequence (P43115 whole entry): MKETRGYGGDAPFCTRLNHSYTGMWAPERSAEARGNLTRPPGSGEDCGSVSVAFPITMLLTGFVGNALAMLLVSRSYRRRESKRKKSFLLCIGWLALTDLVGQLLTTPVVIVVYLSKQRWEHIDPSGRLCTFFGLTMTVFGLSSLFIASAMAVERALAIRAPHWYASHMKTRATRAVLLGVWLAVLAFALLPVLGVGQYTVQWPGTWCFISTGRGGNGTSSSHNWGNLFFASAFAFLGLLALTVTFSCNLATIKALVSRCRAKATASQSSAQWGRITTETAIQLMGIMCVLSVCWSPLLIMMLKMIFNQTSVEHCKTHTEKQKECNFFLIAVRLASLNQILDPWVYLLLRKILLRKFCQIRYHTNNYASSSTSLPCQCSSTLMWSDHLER

[22] = target: T3, Prostaglandin E2 receptor EP1 subtype (Homo sapiens, UniProt P34995); assay: Binding affinity to human EP1 receptor expressed in HEK293 cells; type: cell-based
T3 sequence (P34995 whole entry): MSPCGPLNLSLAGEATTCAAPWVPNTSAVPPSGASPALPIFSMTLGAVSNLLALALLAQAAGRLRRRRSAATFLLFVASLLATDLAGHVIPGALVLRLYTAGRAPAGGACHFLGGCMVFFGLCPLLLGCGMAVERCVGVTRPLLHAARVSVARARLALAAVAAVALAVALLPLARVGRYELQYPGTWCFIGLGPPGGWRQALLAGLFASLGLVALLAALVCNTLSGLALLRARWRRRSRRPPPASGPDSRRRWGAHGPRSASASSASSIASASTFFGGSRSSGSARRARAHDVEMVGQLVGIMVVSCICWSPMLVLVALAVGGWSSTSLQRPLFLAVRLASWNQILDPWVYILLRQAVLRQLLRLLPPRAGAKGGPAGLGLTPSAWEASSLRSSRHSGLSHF

T1 sequence (P43114 whole entry): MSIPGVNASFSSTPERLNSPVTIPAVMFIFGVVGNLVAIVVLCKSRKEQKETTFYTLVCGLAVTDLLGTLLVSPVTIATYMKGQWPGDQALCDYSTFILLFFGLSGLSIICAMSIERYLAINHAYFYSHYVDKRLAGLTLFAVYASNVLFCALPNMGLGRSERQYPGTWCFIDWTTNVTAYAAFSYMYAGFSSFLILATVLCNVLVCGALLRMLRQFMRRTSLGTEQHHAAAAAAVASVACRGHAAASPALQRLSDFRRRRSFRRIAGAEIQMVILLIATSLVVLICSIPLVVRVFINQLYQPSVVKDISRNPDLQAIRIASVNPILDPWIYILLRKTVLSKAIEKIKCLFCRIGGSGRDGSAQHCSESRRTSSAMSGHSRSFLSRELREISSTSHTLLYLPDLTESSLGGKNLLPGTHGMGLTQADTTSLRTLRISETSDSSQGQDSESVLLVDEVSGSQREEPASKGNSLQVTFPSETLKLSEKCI
Chain of Prostaglandin E2 receptor EP4 subtype (Rattus norvegicus) (P43114 whole entry): as above

Structure (SMILES)	IC50 [1] [nM]	Activity [2] [%]	IC50 [3] [nM]	EC50 [4] [nM]	further results
O=C(O)CCCCCCN1C(=O)CC[C@@H]1CC[C@@H](O)Cc1cccc(C(F)(F)F)c1	–	75	> 3200	13	Activity (Rattus norvegicus [5]): 66.92%; half-life [6]: 25.2 min; Vdss (Rattus norvegicus [7]): 0.46 L/kg; Activity (Rattus norvegicus [8]): 29.78%; half-life [9]: 12 min; Activity (Rattus norvegicus [10]): 21.93%; half-life [11]: 25.8 min; Activity (Rattus norvegicus [12]): 23.7%; bioavailability [13]: 17%; Activity (Rattus norvegicus [14]): 32.53%; Activity (Rattus norvegicus [15]): 34.12%; Activity (Rattus norvegicus [16]): 57.7%; clearance [17]: 71 mL/min/kg; Activity (Rattus norvegicus [18]): 15.34%; Activity (Rattus norvegicus [19]): 18.73%; Activity (Rattus norvegicus [20]): 124.19%
O=C(O)CCCCCCN1C(=O)CC[C@@H]1CC[C@@H](O)CCc1ccccc1	2710	–	> 3200	–	–
COCc1cccc(C[C@H](O)CC[C@H]2CCC(=O)N2CCCCCCC(=O)O)c1	62	89	> 3200	18	IC50 [21]: > 2000 nM; IC50 [22]: > 3200 nM
O=C(O)CCCCCCN1C(=O)CC[C@@H]1CC[C@@H](O)Cc1cccc(O)c1	1200	100	> 3200	170	–
O=C(O)c1ccc(CCCN2C(=O)CCC2CCC(O)Cc2cccc(F)c2)cc1 (stereo not given)	126	–	> 3200	–	–
O=C(O)c1ccc(CCCN2C(=O)CCC2CCC(O)Cc2ccccc2)cc1 (stereo not given)	250	–	> 3200	–	IC50 [21]: > 3200 nM; IC50 [22]: > 3200 nM
O=C(O)c1ccc(CCCN2C(=O)CC[C@@H]2CC[C@@H](O)Cc2cccc(C(F)(F)F)c2)cc1	70	105	> 3200	105	–
O=C(O)CCCCCCN1C(=O)CC[C@@H]1CC[C@@H](O)Cc1cccc(-c2ccccc2)c1	337	101	> 3200	195	–
O=C(O)CCCCCCN1C(=O)CCC1CCC(O)CCc1ccccc1 (stereo not given)	> 3200	–	> 3200	–	–
O=C(O)c1ccc(CCCN2C(=O)CCC2CCC(O)Cc2ccc(F)cc2)cc1 (stereo not given)	2770	–	> 3200	–	IC50 [21]: > 3200 nM; IC50 [22]: > 3200 nM
O=C(O)CCCCCCN1C(=O)CC[C@@H]1CCC(O)Cc1ccccc1 (stereo not given in full)	54	114	> 3200	32.5	IC50 [21]: > 3200 nM; half-life [6]: 27 min; Vdss (Rattus norvegicus [7]): 0.4 L/kg; half-life [9]: 6 min; half-life [11]: 21 min; IC50 [22]: > 3200 nM; bioavailability [13]: 21%; clearance [17]: 101 mL/min/kg
O=C(O)c1ccc(CCCN2C(=O)CCC2CCC(O)Cc2cccc(-c3ccccc3)c2)cc1 (stereo not given)	47	97	> 3200	440	–
O=C(O)CCCCCCN1C(=O)CCC1CCC(O)Cc1cccc(Cl)c1 (stereo not given)	22	89	> 3200	8.8	–
O=C(O)c1ccc(CCCN2C(=O)CCC2CCC(O)Cc2cccc(Cl)c2)cc1 (stereo not given)	42	106	> 3200	425	IC50 [21]: > 3200 nM; IC50 [22]: > 3200 nM
N#Cc1cccc(C[C@H](O)CC[C@H]2CCC(=O)N2CCCCCCC(=O)O)c1	388	104	> 3200	96	–
O=C(O)CCCCCCN1C(=O)CC[C@@H]1CCC(O)Cc1cccc(Oc2ccccc2)c1 (stereo not given in full)	–	–	> 3200	–	IC50 [21]: > 3200 nM; IC50 [22]: > 3200 nM
O=C(O)CCCCCCN1C(=O)CC[C@@H]1CC[C@@H](O)Cc1cccc(OC(F)(F)F)c1	59	78	> 3200	50	–
COCCc1cccc(C[C@H](O)CC[C@H]2CCC(=O)N2CCCCCCC(=O)O)c1	210	82	> 3200	92	–

Second part, led by results:

IC50 [1] [nM]	Activity [2] [%]	IC50 [3] [nM]	EC50 [4] [nM]	Structure (SMILES)	further results
65	73	> 3200	500	O=C(O)c1ccc(CCCN2C(=O)CC[C@@H]2CCC(O)Cc2ccc3ccccc3c2)s1 (stereo not given in full)	–
220	–	> 3200	–	O=C(O)c1ccc(CCCN2C(=O)CCC2CCC(O)Cc2cccc(Oc3ccccc3)c2)cc1 (stereo not given)	–
–	102	483	–	O=C(O)c1ccc(CCCN2C(=O)CC[C@@H]2CC[C@@H](O)Cc2cccc(C(F)(F)F)c2)s1	half-life [6]: 52.2 min; Vdss (Rattus norvegicus [7]): 0.49 L/kg; half-life [9]: 12 min; half-life [11]: 18 min; bioavailability [13]: 1%; clearance [17]: 70 mL/min/kg
1.1	70	188	0.6	O=C(O)c1ccc(CCCN2C(=O)CC[C@@H]2CC[C@@H](O)Cc2cccc(Cl)c2)s1	–
21	88	690	1.7	O=C(O)c1ccc(CCCN2C(=O)CC[C@@H]2CCC(O)Cc2ccccc2)s1 (stereo not given in full)	–
70	70	1200	22	O=C(O)c1ccc(CCCN2C(=O)CC[C@@H]2CC[C@@H](O)Cc2ccc(F)cc2)s1	–
80	90	86	40	O=C(O)c1ccc(CCCN2C(=O)CC[C@@H]2CCC(O)Cc2ccc(Cl)cc2)s1 (stereo not given in full)	IC50 [21]: > 3200 nM; IC50 [22]: > 3200 nM
50	95	135	203	O=C(O)c1ccc(CCCN2C(=O)CC[C@@H]2CCC(O)Cc2cccc(-c3ccccc3)c2)s1 (stereo not given in full)	IC50 [21]: 20000 nM; IC50 [22]: 18600 nM
17	97	640	2.4	O=C(O)c1ccc(CCCN2C(=O)CC[C@@H]2CCC(O)Cc2cccc(F)c2)s1 (stereo not given in full)	–
140	82	1200	275	CCc1ccc(CC(O)CC[C@H]2CCC(=O)N2CCCc2ccc(C(=O)O)s2)cc1 (stereo not given in full)	–
1600	–	125	–	O=C(O)c1ccc(CCCN2C(=O)CC[C@@H]2CCC(O)Cc2ccccc2-c2ccccc2)s1 (stereo not given in full)	–
